Source: patent US11925194B2, “Antimicrobially active mixtures” (SYMRISE AG, priority 2017, dated 2024)

Experiments:
S. cerevisiae [1] = test: Antimicrobial effect of extracts and fractions, citrate buffer pH 5; type: cell-based, Saccharomyces cerevisiae
Text: For further examination of the antimicrobial effect of different extracts alone, i.e. without a combination with component (B) or fractions thereof according to the invention, exemplary extracts or fractions thereof such as described in Examples 1 to 4 were used. […] The samples were inoculated with 3.8×10^4 CFU/mL […].

Z. bailii = test: Germ load test of aroma and extract combinations, pure water pH 7; type: cell-based, Zygosaccharomyces bailii; conditions: 400 ppm in sample
Text: (§1) In the scope of a further test, the antimicrobial effect of aroma and extract combinations was examined. […] For example, grape stone extract and the flavouring agent vanillic acid have a different effect against yeasts. In the combination, however, also an effect against fungi and an optimal effect against yeasts was observed. The pomegranate and red berry extract have a lower effect at pH 7 compared to pH 3 (cf. Example 5), the pomegranate extract eliminates S. cerevisiae in less than 14 days at 1000 mg/kg. In combination with Limonene-containing lemon oils, however, the effect can be increased for higher pH values.

S. cerevisiae [2] = test: as above; type: cell-based, Saccharomyces cerevisiae; conditions: 400 ppm in sample
Text: as §1

C. albicans = test: as above; type: cell-based, Candida albicans; conditions: 400 ppm in sample
Text: as §1

C/C=C/C=C/C(=O)[O-].[K+] [potassium sorbate]
Reduction in the germination number of S. cerevisiae (in words) (S. cerevisiae [1]; 375 mg/kg, pH 5, 28 days): did not show a significant reduction | Germination number S. cerevisiae after 28 days (S. cerevisiae [1]; dose 375 mg/kg, citrate buffer pH 5, after inoculation 3.80E+04): 1.00E+03 CFU/mL

COc1cc(C(=O)O)ccc1O [Vanillic acid]
Elimination of Z. bailii in less than (time) (Z. bailii): < 24 h | Elimination of S. cerevisiae in less than (time) (S. cerevisiae [2]): < 14 days | Elimination of C. albicans in less than (time) (C. albicans): < 24 h
